The record followed here is patent US6649797B2, “Compounds and methods of use to treat infectious diseases” (The Picower Institute for Medical Research, priority 1996, dated 2003).

Series [1] deals with HIV-1. As to the kind of experiment: HIV-1 production in cultured monocytes at fixed 100 nM. It counts as cell-based. Conditions: monocytes infected 10 days prior to assay (10 ng p24/10^6 cells), percentage of untreated control. Here is the method:
Alternatively, the compounds may all be compared for inhibition of HIV replication at a fixed concentration. Presented in Table II are compounds that were used at a concentration of 100 nM to inhibit the production of HIV-1 in cultured monocytes infected with HIV-1 10 days prior to assay (10 ng of p24/10^6 cells). The production of HIV-1 in each treated culture is reported as percentage of untreated control.

Series [2] relates to HIV-1. As to the kind of experiment: AZT and Compound No. 2 in combination, HIV-1 infected monocyte cultures, RT activity. Conditions: for reverse transcriptase activity in supernatant: (−) No. 2. It counts as cell-based. Here is the method: Primary human monocytes were obtained from peripheral blood by Ficoll-Hypaque centrifugation and adherence to plastic as described previously. Gartner S. P., et al., 1986, Science 233:215. Briefly, after Ficoll-Hypaque (Pharmacia) separation, PBMCs were washed 4 times with DMEM (the last wash was done at 800 rpm to remove platelets) and resuspended in monocyte culture medium [DMEM supplemented with 1 mM glutamine, 10% heat-inactivated human serum, 1% penicillin+streptomycin mixture (Sigma)] at a density of 6×10^6 cells/ml. Cells were seeded in 24-well plates (1 ml per well) and incubated for 2 h at 37° C, 5% CO2. Following incubation, cells were washed 3 times with DMEM to remove non-adherent cells and incubation was continued in monocyte culture medium supplemented with 250 U/ml human M-CSF (Sigma). Cells were allowed to mature for 7 days prior to infection with the monocyte-tropic strain, HIV-1ADA. Nuovo, G. J., et al., 1992, Diagn. Mol. Pathol. 1:98. Two hours after infection, cells were washed with medium and cultured in RPMI supplemented with 10% human serum. In experiments where PCR analysis was performed, virus was pretreated with RNAse-free DNAse (Boehinger-Mannheim) for 2 h at room temperature and then filtered though a 0.2 μm pore nitrocellulose filter prior to infection.
For the reverse transcriptase (RT) assay, 10 μl of culture supernatant was added to 40 μl of reaction mixture (final composition was 50 mM Tris-HCl, pH 7.8; 20 MM KCl; 5 MM MgCl2; 1 mM DTT; 0.1% Triton X-100; 0.2 OD/ml polyA; 0.2 OD/ml oligo(dT)12-18; and 40 μCi/ml ^3H-dTTP (76 Ci/mmol, DuPont) and incubated 2 hr at 37° C. 5 μl of the reaction mixture was then spotted onto the DE 81 (Whatman) paper. Paper was air dried and washed 5 times with 5% Na2HPO4, followed by rinsing with distilled water. After air drying, paper was put on a Flexi Filter plate (Packard), covered with scintillation fluid and counted in a Top Count Microplate Counter (Packard). Results are expressed as counts per minute in 1 ml of supernatant (cpm/ml).
In view of these premises, the effects on HIV-1 replication in human monocyte cultures of the various concentrations of AZT, alone or in combination with 100 nM Compound No. 2, were tested using the protocols of Sections 6.2.1 and 6.2.2. Drugs were added to the monocyte cultures together with HIV-1 at about 10^5 TCID/ml. The concentration of drugs was maintained on refeeding. HIV-1 replication was assessed by assay of the supernatant for reverse transcriptase activity. The results are expressed as mean ± std. dev. (cpm×10^−3) in Table V.

The nature of series [3]: Pharmacokinetics in mice (plasma, HPLC). It counts as in vivo, mouse.
Protocol: Standard addition curves for each test compound were constructed by adding increased amounts of drug to mouse or human A^+ plasma (Long Island Blood Services; Melville, N.Y). […] The column was washed with 1.0 ml of water and then eluted with 1.0 ml of 10 mM tetramethylammonium chloride/10 mM heptane sulfonate/4.2 mM H3PO4/95% CH3CN/5% H2O (Buffer C). The eluted sample was reduced to dryness in a rotary evaporator and resuspended in 1.0 ml Buffer A.
Two hundred μl of the resuspended sample was injected onto a Hewlett-Packard model 1090 high performance liquid chromatography system (HPLC)(Wilmington, Del.) equipped with a photodiode array ultraviolet/visible spectrophotometric detector, autosampler, and Chemstation operating software. The column used was a 250×4.6 mm Zorbax RX-C8 column (Mac-Mod Analyticals; Chadd's Ford, Pa.) kept at room temperature and run at 1.5 ml/min. The mobile phase used was Buffer A and 10 mM tetramethylammonium chloride/10 mM heptane sulfonate/4.2 mM H3PO4/75% CH3CN/25% H2O (Buffer B), with all runs initiated at 10% Buffer B. A linear 30 min gradient to 60% Buffer B was then performed, followed by a 4 min reverse gradient to initial conditions.
Female ND4 Swiss Webster mice (21-24 g) were obtained from Harlan Sprague Dawley (Indianapolis, Ind.) and randomly placed in groups of five in cages with free access to food and water. […] The other CNI compounds were administered intraperitoneally or by oral gavage as a solution in water titrated with sufficient HCl to dissolve the drug. At various time points, ranging from 5 min to 4 days, a single group of animals was euthanized by carbon dioxide inhalation and bled by cardiac puncture using heparin as an anticoagulant. The blood from the five mice in the group was pooled and centrifuged at 14000× g for 10 min. The volume of plasma was measured, and equal volume of Buffer A added, and the mixture extracted and analyzed as described above, except that the dried eluates were resuspended in 200 μl Buffer A and 100 μl was injected onto the high performance liquid chromatography (HPLC) system.
The area under the plasma concentration-time curve (AUC) was determined, and bioavailability was measured as AUCoral/AUCi.p. A and B represent the zero time intercept of the distribution and elimination phases respectively, and a and β the respective slopes of the phases multiplied by 2.303. The t/2α and t1/2β are calculated half-lives of the drug in each phase (0.693/α and 0.693/β respectively). The volume of distribution (VD) was calculated as dose/B, and the total clearance rate (Cltot) calculated as β*VD. Cmax and tmax are the maximal plasma concentration and time of this measurement, respectively.
Series [4] in a line: Toxicity in mice, median lethal dose by intraperitoneal injection. Conditions: for LD50: mouse, in vivo, ip, read-out: LD50 ± standard deviation. It is filed as in vivo, mouse. The procedure:
The doses of compounds of the invention found to be lethal to 50% of the mice (LD50) were determined by intraperitoneal injection of groups of five animals with increasing doses of each compound. CNI-0294 was administered from 0, 2, 10, 20, 40, 80, 160, 320, 640, 1280 mg/kg in 0.5 ml of water/HCl; CNI-1594 at 0, 2.4, 5, 10, 20, 40, 80 mg/kg in 0.5 ml of water/HCl; CNI-1794 at 0, 20, 50, 80 mg/kg in 0.5 ml of water/HCl; and CNI-1894 at 0, 10, 20, 40, 80, 240, 480, 960 mg/kg in water/HCl. […] The percentage of animals in each group which died were utilized to calculate the LD50 by non-linear curve fitting with the Enzfit software (Elsevier Bioscience; Cambridge, UK) programmed with the Chou equation (Chou 1976, J Theor Biol 39:253-276)).

A short description of series [5]: In vitro metabolism with mouse liver post-mitochondrial supernatant and NADPH. It is filed as in vitro ADME. The procedure: Several female ND4 Swiss Webster mice were euthanized by carbon dioxide inhalation and the livers excised and rinsed with ice cold phosphate buffered saline (pH 7.4). The livers were minced, gently homogenized in 50 mM phosphate buffer (pH 7.4) with a Dounce homogenizer, and centrifuged at 9600× g for 20 min. The post-mitochondrial supernatant was kept, glycerol added to 20%, and frozen at −70° C in 1.0 ml aliquots until used. For each incubation, 1.0 ml of a 1.0 mg/ml drug solution was added to 3.0 ml of 50 mM phosphate buffer (pH 7.4), 1.0 ml of 2 mg/ml NADPH in 50 mM phosphate (pH 7.4), and 1.0 ml of the post-mitochondrial supernatant. Five hundred μl of each incubate was then immediately transferred to an ice-cold tube to provide the zero-time sample, and addition 500 μl aliquots removed to ice-cold tubes at 8, 15, 30, and 60 min. The samples were then extracted, and analyzed by HPLC as described in section 7.1. Control incubations were also performed where drug or post-10 mitochondrial supernatant was omitted. […] Peaks in the CNI compound incubations which increased over time, and were not present in control samples lacking the enzyme preparation were treated as putative metabolites.

The test system of series [6] is Plasmodium falciparum. As to the kind of experiment: Antimalarial activity in vitro, [3H]-hypoxanthine incorporation. It is filed as cell-based. Conditions: for IC50: Plasmodium falciparum. The text has this: The antimalarial properties of the compounds of the invention can be analyzed by techniques, assays and experimental animal models well known in the art. For example, the inhibition of growth of Plasmodium falciparum in vitro by the compounds may be assessed by the hypoxanthine-incorporation method (Desjardins et al., 1979, Antimicrob. Ag. Chemother. 16:710-718). […] The in vivo efficacy of the compounds can also be tested in mouse models in which parasitemia is enumerated following administration of the compound (Ager, A. L. 1984, Rodent malaria models, pp 225-264. In Handbook of Experimental Pharmacology vol. 68, Antimalarial Drugs, Peters and Richards eds, Springer-Verlag, Berlin).
The antimalarial activity of the compounds was determined essentially as described in Desjardins et al. supra. Fifty μl of various concentrations of a compound of the invention, chloroquine, or pyrimethamine were added to the wells of microtiter plates, followed by 200 μl of ring-stage, synchronized, P. falciparum-infected erythrocytes (final hematocrit=1.5%, final parasitemia=1-5%). The plates were incubated for 24 hr in a candle jar kept at 37° C., and then 25 μl of [^3H]-hypoxanthine (Amersham, Arlington Heights, ILL.; 2.5 μl Ci/well) was added. The plates were then incubated for a further 24 hr, before harvesting onto Unifilter-96 GF/C filter-microplates (Packard; Meriden, Conn.). Twenty-five μl of Microscint scintillation fluid (Packard) was added to each well of the filter-microplate, which was subsequently counted in a Top-count microplate scintillation counter (Packard). The percent of [^3H]-hypoxanthine uptake relative to control infect-erythrocytes was used to determine the IC50 value for the compounds by non-linear regression for LD50 determination.

Series [7] relates to HIV-1ADA. As to the kind of experiment: Anti-HIV activity in primary human monocytes, day 9 (Table IX, FIG. 12C). It is filed as cell-based. Conditions: Human immunodeficiency virus 1, Monocyte, 216 h; day 9 after infection; >10 μM = 50% inhibition not achieved at maximal concentration; read-out: IC50. The procedure: Monocytes infected with HIV-1ADA were cultured in the presence of CNI-H0294 and CNI-H3094 in various concentrations. Nine days after infection, RT activity in culture supernatants was quantified. The results are presented as percent of total RT activity in untreated cultures (control). Three independent samples were assayed for each drug concentration, and the standard deviation was less than 15%.
[…] A 50% inhibitory concentration (IC50) was determined at day 9 after infection.

The mark [8] stands for this setting: female, ND4 Swiss Webster, mouse, plasma, ip, 50 mg/kg, vehicle water.
[9] abbreviates: mouse, i.p., 50 mg/kg, vehicle water.

Like-named read-outs stand apart in the source and are kept apart here.

For `CC(=O)c1cccc(C(C)=O)c1N` [2,6-diacetylaniline], the “Viral Production” value in series [1] is 28%.

Regarding `CC(=O)c1cncc(C(C)=O)c1` [3,5-diacetylpyridine], the “Viral Production” value in series [1] is recorded as 58%.

Regarding `Cc1cn([C@H]2C[C@H](N=[N+]=[N-])[C@@H](CO)O2)c(=O)[nH]c1=O` [AZT], the “reverse transcriptase activity in supernatant” value in series [2] (day-7, 10 pM AZT, mean ± std. dev.) was determined as 0.92 ± 0.21 cpm×10^−3; in series [2] (day-7, 100 pM AZT), 0.79 ± 0.14 cpm×10^−3; in series [2] (day-7, 1 nM AZT) it was 0.60 ± 0.28 cpm×10^−3; in series [2] (day-7, 10 nM AZT), 0.05 ± 0.02 cpm×10^−3; in series [2] (day-11, 10 pM AZT), 1.63 ± 0.81 cpm×10^−3; in series [2] (day-11, 100 pM AZT), 1.34 ± 0.59 cpm×10^−3. The “reverse transcriptase activity in supernatant” value was determined as 1.07 ± 0.49 cpm×10^−3 in series [2] (day-11, 1 nM AZT) and 0.08 ± 0.03 cpm×10^−3 in series [2] (day-11, 10 nM AZT). Besides, the “reduction in RT activity” value in series [2] (day-11, 10 pM AZT alone) was “about 20%”.

The term AUC denotes the area under the concentration-time curve, a measure of exposure. A lower AUC goes with less exposure. The Cmax is the peak of the concentration-time curve. One may read the Tmax as the time at which the peak concentration occurs. For orientation: LD50 means the dose expected to kill half of the subjects tested. As a reminder, the IC50 is the concentration at which inhibition is half-maximal. On to `CC(=O)c1cc(N)cc(C(C)=O)c1` [CNI-1894, 3,5-diacetylaniline], for which the “Viral Production” value in series [1] is 20%. In series [3] (setting [8]), this compound registered an area under the curve (AUC) of 20200 ng·h/mL and a Cmax of 13400 ng/mL. Further, the Tmax in series [3] (female, ND4 Swiss Webster, plasma, ip, mouse, i.p., 50 mg/kg, vehicle water, read-out: tmax (converted)) was 5 min. In addition, the maximal plasma level in series [3] (mice, single i.p. injection (50 mg/kg; CNI-1594 20 mg/kg)) came out at 13.43 µg/mL. Besides, in series [3] (setting [9]), the “A (zero time intercept of the distribution phase)” value amounted to 14.93 µg/mL, the “B (zero time intercept of the elimination phase)” value turned out to be 0.15 µg/mL, the Cltot is 3.30 mL/min and the t1/2α is 34.8 min. In series [3] (setting [9]), this compound returned a t1/2β of 1386 min, a α of 1.19 h⁻¹ and a β of 0.03 h⁻¹. Moreover, in series [4], the “visible signs of toxicity” value was “died 2-3 days post injection, and showed no sign of any immediate toxicity”; the LD50 is 258.6 ± 1.37 mg/kg. In addition, the metabolites produced result in series [5] is “one minor and one major metabolite”. The “metabolic conversion (drug altered, as judged by peak area)” value in series [5] (60 min incubation) is on record as 17.28%. In addition, the antimalarial activity result in series [6] (clone Dd2, highest concentration tested 200 μM) was “inactive at the highest concentration tested”. The IC50 in series [7] was above 10000 nM.

Consider `CCN(CC)CCCC(C)Nc1ccnc2cc(Cl)ccc12` (centres unmarked) [Chloroquine], for which the IC50 in series [6] (DD2, clone Dd2, Chloroquine column, unit inferred) is 123 ± 7.26 nM; in series [6] (FCR3, clone FCR-3, Chloroquine column, unit inferred), 105 ± 9.98 nM; in series [6] (HB3, clone HB3, Chloroquine column, unit inferred), 6.73 ± 0.16 nM; in series [6] (clone D10, Chloroquine column, unit inferred), 27 ± 2.42 nM; in series [6] (clone W2mef, Chloroquine column, unit inferred) it was 144 ± 13.3 nM.

As for `CC(=O)c1ccc(Nc2cc(C)nc(N)n2)cc1` [Compound No. 17, 2-amino-4-(4-acetylphenyl)amino-6-methylpyrimidine], the LD50 in series [4] was 48.93 ± 0.12 mg/kg.

In the case of `CC(=O)c1cc(C(C)=O)cc(N(C)C)c1` [N,N-dimethyl-3,5-diacetylaniline], the “Viral Production” value in series [1] amounted to 25%.

`CCc1nc(N)nc(N)c1-c1ccc(Cl)cc1` [Pyrimethamine]: the IC50 in series [6] (DD2, clone Dd2, ± standard deviation, read-out: IC50) turned out to be 104000 ± 9790 nM; in series [6] (clone W2mef, ± standard deviation, read-out: IC50) it was 17800 ± 13500 nM.
